Data as given in PubChem BioAssay (NCI).
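Dose response: 5 concentrations. Exposure: 48 h. Format: 96-well plates. Endpoint: linear interpolation; highest concentration if not reached. The concentration for full growth arrest is given as TGI.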

Legend:
Assay in all cases: NCI tumour cell line growth inhibition, 48 h
[1] = system: HS 578T breast
[2] = system: HT29 colon
[3] = system: HCT-15 colon
[4] = system: T-47D breast
[5] = system: MALME-3M melanoma
[6] = system: PC-3 prostate
[7] = system: SF-295 CNS
[8] = system: 786-0 renal
[9] = system: SN12C renal
[10] = system: NCI-H23 lung
[11] = system: SW-620 colon
[12] = system: OVCAR-8 ovarian
[13] = system: RPMI-8226 leukemia
[14] = system: K-562 leukemia
[15] = system: OVCAR-5 ovarian
[16] = system: MDA-N
[17] = system: MCF7 breast
[18] = system: LOX IMVI melanoma
[19] = system: U251 CNS
[20] = system: HL-60(TB) leukemia
[21] = system: MDA-MB-435
[22] = system: TK-10 renal
[23] = system: KM12 colon
[24] = system: EKVX NSCLC
[25] = system: UACC-62 melanoma
[26] = system: DU-145 prostate
[27] = system: ACHN renal
[28] = system: CAKI-1 renal
[29] = system: IGROV1 ovarian
[30] = system: OVCAR-4 ovarian
[31] = system: SK-MEL-5 melanoma
[32] = system: NCI/ADR-RES ovarian
[33] = system: CCRF-CEM leukemia
[34] = system: UACC-257 melanoma
[35] = system: COLO 205 colon
[36] = system: HCT-116 colon
[37] = system: OVCAR-3 ovarian
[38] = system: A549 NSCLC
[39] = system: BT-549 breast
[40] = system: SNB-19 CNS
[41] = system: RXF 393 renal
[42] = system: MOLT-4 leukemia
[43] = system: HOP-62 NSCLC
[44] = system: NCI-H522 lung
[45] = system: MDA-MB-231 breast
[46] = system: SK-OV-3 ovarian
[47] = system: SF-268 CNS
[48] = system: HOP-92 NSCLC
[49] = system: NCI-H226 lung
[50] = system: M14 melanoma
[51] = system: SK-MEL-2 melanoma
[52] = system: NCI-H460 lung
[53] = system: UO-31 renal
[54] = system: SF-539 CNS
[55] = system: HCC-2998 colon
[56] = system: SK-MEL-28 melanoma
[57] = system: SNB-75 CNS
[58] = system: A498 renal

Q: For Clc1ccc(Cc2nc3ccccc3nc2-c2cccc(Cl)c2)cc1, which TGI [1] is on record?
A: 12.4 µM

Q: And the TGI [2]?
A: 6 µM

Q: What about the TGI [3] of the same molecule?
A: 3.46 µM

Q: And the TGI [4]?
A: > 100 µM

Q: What about the TGI [5] of the same molecule?
A: 8.24 µM

Q: And the TGI [6]?
A: 8.18 µM

Q: And the TGI [7]?
A: 32.6 µM

Q: What about the TGI [8] of the same molecule?
A: 3.63 µM

Q: What about the TGI [9] of the same molecule?
A: 8.63 µM

Q: And the TGI [10]?
A: 27 µM

Q: And the TGI [11]?
A: 3.71 µM

Q: And the TGI [12]?
A: 14.2 µM

Q: What about the TGI [13] of the same molecule?
A: 2.14 µM

Q: And the TGI [14]?
A: 5.79 µM

Q: And the TGI [15]?
A: 21.2 µM

Q: What about the TGI [16] of the same molecule?
A: 5.64 µM

Q: And the TGI [17]?
A: 13 µM

Q: And the TGI [18]?
A: 3.58 µM

Q: What about the TGI [19] of the same molecule?
A: 16.7 µM

Q: What about the TGI [20] of the same molecule?
A: 6.29 µM

Q: What about the TGI [21] of the same molecule?
A: 4.09 µM

Q: What about the TGI [22] of the same molecule?
A: 25.9 µM

Q: And the TGI [23]?
A: 16.5 µM

Q: What about the TGI [24] of the same molecule?
A: 31.9 µM

Q: And the TGI [25]?
A: 3.46 µM

Q: What about the TGI [26] of the same molecule?
A: 40.6 µM

Q: What about the TGI [27] of the same molecule?
A: 3.45 µM

Q: And the TGI [28]?
A: 8.51 µM

Q: What about the TGI [29] of the same molecule?
A: 3.66 µM

Q: What about the TGI [30] of the same molecule?
A: 3.24 µM

Q: What about the TGI [31] of the same molecule?
A: 18.1 µM

Q: What about the TGI [32] of the same molecule?
A: 8.96 µM

Q: And the TGI [33]?
A: 0.174 µM

Q: And the TGI [34]?
A: 39.3 µM

Q: And the TGI [35]?
A: 7.88 µM

Q: And the TGI [36]?
A: 3.29 µM

Q: And the TGI [37]?
A: 17.4 µM

Q: And the TGI [38]?
A: 32.8 µM

Q: What about the TGI [39] of the same molecule?
A: 16.7 µM

Q: What about the TGI [40] of the same molecule?
A: 3.85 µM

Q: And the TGI [41]?
A: 4.66 µM

Q: What about the TGI [42] of the same molecule?
A: 6.82 µM

Q: What about the TGI [43] of the same molecule?
A: 38.1 µM

Q: And the TGI [44]?
A: 3.41 µM

Q: What about the TGI [45] of the same molecule?
A: 10.4 µM

Q: What about the TGI [46] of the same molecule?
A: 31.8 µM

Q: What about the TGI [47] of the same molecule?
A: 44.4 µM

Q: What about the TGI [48] of the same molecule?
A: 5.14 µM

Q: What about the TGI [49] of the same molecule?
A: 38.4 µM

Q: What about the TGI [50] of the same molecule?
A: 5.06 µM

Q: What about the TGI [51] of the same molecule?
A: 8.11 µM

Q: And the TGI [52]?
A: 37.8 µM

Q: What about the TGI [53] of the same molecule?
A: 3.32 µM

Q: And the TGI [54]?
A: 4.92 µM

Q: What about the TGI [55] of the same molecule?
A: 3.65 µM

Q: Which TGI [1] does the source give for c1ccc2c(c1)ccc1nc(-c3ccc4c(c3)OCO4)c3c(c12)CCC3 here?
A: > 100 µM

Q: What about the TGI [2] of the same molecule?
A: > 100 µM

Q: And the TGI [3]?
A: > 100 µM

Q: What about the TGI [4] of the same molecule?
A: > 100 µM

Q: And the TGI [5]?
A: > 100 µM

Q: What about the TGI [6] of the same molecule?
A: > 100 µM

Q: What about the TGI [7] of the same molecule?
A: > 100 µM

Q: And the TGI [8]?
A: > 100 µM

Q: And the TGI [9]?
A: > 100 µM

Q: What about the TGI [10] of the same molecule?
A: > 100 µM

Q: And the TGI [11]?
A: > 100 µM

Q: What about the TGI [12] of the same molecule?
A: > 100 µM

Q: And the TGI [13]?
A: > 100 µM

Q: And the TGI [14]?
A: > 100 µM

Q: And the TGI [56]?
A: > 100 µM

Q: And the TGI [15]?
A: > 100 µM

Q: And the TGI [57]?
A: > 100 µM

Q: What about the TGI [16] of the same molecule?
A: > 100 µM

Q: What about the TGI [17] of the same molecule?
A: > 100 µM

Q: And the TGI [19]?
A: > 100 µM

Q: What about the TGI [21] of the same molecule?
A: > 100 µM

Q: What about the TGI [23] of the same molecule?
A: > 100 µM

Q: And the TGI [24]?
A: > 100 µM

Q: What about the TGI [25] of the same molecule?
A: > 100 µM

Q: What about the TGI [27] of the same molecule?
A: > 100 µM

Q: And the TGI [28]?
A: > 100 µM

Q: And the TGI [58]?
A: > 100 µM

Q: And the TGI [30]?
A: > 100 µM

Q: And the TGI [32]?
A: > 100 µM

Q: What about the TGI [33] of the same molecule?
A: > 100 µM

Q: What about the TGI [34] of the same molecule?
A: > 100 µM

Q: What about the TGI [35] of the same molecule?
A: > 100 µM

Q: And the TGI [36]?
A: > 100 µM

Q: And the TGI [37]?
A: > 100 µM

Q: What about the TGI [38] of the same molecule?
A: > 100 µM

Q: And the TGI [39]?
A: > 100 µM

Q: And the TGI [40]?
A: > 100 µM

Q: And the TGI [42]?
A: > 100 µM

Q: And the TGI [43]?
A: > 100 µM

Q: What about the TGI [45] of the same molecule?
A: > 100 µM

Q: What about the TGI [46] of the same molecule?
A: > 100 µM

Q: And the TGI [47]?
A: > 100 µM

Q: And the TGI [49]?
A: > 100 µM

Q: What about the TGI [50] of the same molecule?
A: > 100 µM

Q: And the TGI [51]?
A: > 100 µM

Q: And the TGI [52]?
A: > 100 µM

Q: What about the TGI [53] of the same molecule?
A: > 100 µM

Q: What about the TGI [54] of the same molecule?
A: > 100 µM

Q: What about the TGI [55] of the same molecule?
A: > 100 µM
